Experimental data reported in patent US20140242012A1, “METHODS FOR TREATING UV-DAMAGED SKIN AND SCC TUMORS AND FOR REMOVING TATTOOS WITH TOPICAL INGENOL MEBUTATE” (LEO Laboratories Limited, priority 2011, published 2014).

Legend:
B16 = assay: In vitro cytotoxicity assay (SRB); assay type: cell-based, murine; details: 48 h, DMSO
Method: (§1) UV-13.1 and T7 cells are cultured in DMEM medium (Gibco Catalogue number 11960) supplemented with sodium-pyruvate (Gibco Catalogue number 11360-070, final concentration 1 mM), L-glutamine (Gibco, catalogue number 25030-081, final concentration 2 mM) and penicillin/streptomycin (Catalogue number 490269, diluted 1:100). B 16 cells are cultured in RPMI (QIMR) supplemented with 10% FBS and penicillin/streptomycin.
(§2) Cells are seeded with in 10,000 per microtitre wells in 100 μl of culture medium and incubated overnight to enable them to adhere to the bottom of the well. Quadruplicate wells aere treated with ingenol mebutate (PEP005 #250803 final concentration 0.232-232 μM) dissolved in DMSO (Sigma, D2650). […] Included in the assay were cells treated with vehicle alone (1% DMSO) and control. The treated cells are incubated at 37° C. for 48 h. Medium from the microtitre plates is tipped out; the wells are washed once with PBS to remove any excess FBS and then are fixed with methylated spirits for a minimum of 5 min. The methylated spirit is tipped off and the wells are washed once with tap water. A volume of 50 μl of sulforhodmain B (SRB) solution (0.4% SRB in 1% acetic acid) is added to each well and the plates are incubated at room temperature for a minimum of 15 min. The SRB solution is tipped off and the plates are washed twice with tap water and then twice with 1% acetic acid. The final wash of acetic acid is tapped out of the plate and 100 μl of 10 mM Tris base (unbuffered, pH>9) is added per well. The plate is incubated at room temperature for at least 5 min and then the absorbance is read on an ELISA plate reader at 564 nm.
(§3) To determine the in vitro sensitivity profile of T7 cells to ingenol mebutate treatment, a dose-response is generated by using the SRB stain to monitor cellular protein. Cells are seeded at high density and treated with ingenol mebutate (0.232-232 μM) for 48 h. The plates are fixed and are stained with SRB. […]
(§4) Cells are treated with 0.232-232 μM of ingenol mebutate. […] After 2 days, total protein is determined using SRB staining. […]

T7 cells = assay: In vitro cytotoxicity assay (SRB); assay type: cell-based, murine; details: 48 h, DMSO
Method: as §1, §2, §3, §4

UV-13.1 = assay: In vitro cytotoxicity assay (SRB); assay type: cell-based, murine; details: 48 h, DMSO
Method: as §1, §2, §3, §4

anti-T7 antibodies = assay: T7 ELISA of serum from cured mice; assay type: in vivo, SKH1/hr mice
Method: Blood (˜50-100 μl) 1 s taken by tail bleeding the mice and is collected into 0.8 ml MiniCollect® Z Serum Separator tubes that are coated with spray-dried clot activator (Greiner bio-one Cat. Num. 450472) and are spun at 3000 rpm in a microfuge at room temperature for 10 min. The serum is collected and stored at 4° C. for analysis of anti-T7 antibodies by ELISA.
Preparation of T7 ELISA plates: T7 cells are grown to 90% confluence. The medium is aspirated and the cells are washed once with ice-cold PBS. T7 cells are harvested by scraping in PBS supplemented with protease inhibitor cocktail (PIC) and disrupted by sonication at 4° C. for 1-2 min. The T7 lys ate solution is supplemented with bicarbonate buffer (pH 9.6) containing PIC to a final volume of 40 ml and 70 μl/well is added to each well in a 96 well plate (Nunc, Invitro Technologies Cat. Num. 442404). The plates are dried overnight at 37° C.
The following day, the plates are blocked with 10% (w/v) skim milk in PBS for 1 h at room temperature. Meanwhile mouse serum is prepared by diluting 1:7 to 1:413343 in 3-fold dilutions in PBS/0.01% Tween20 (v/v)/1% (w/v) skim milk for the IgG2a plate and 1:10 10 […] in 3-fold dilutions for the IgG1 plate. […] Spectrophotometric readings are taken on an ELISA plate reader at 405 nm and graphs are generated using Graphpad Prism Version 5.01 software. […]

In the case of C/C=C(/C)C(=O)O[C@H]1C(C)=C[C@]23C(=O)[C@@H](C=C(CO)[C@@H](O)[C@]12O)[C@H]1[C@@H](C[C@H]3C)C1(C)C [ingenol mebutate], the “90% lethal dose (LD90)” value (B16) is reported as 100 to 110 µM, the “90% lethal dose (LD90)” value (T7 cells) is reported as 100 to 110 µM and the “90% lethal dose (LD90)” value (UV-13.1) is reported as 100 to 110 µM. The “IgG1 and IgG2a anti-T7 antibodies vs naïve mice” value (anti-T7 antibodies; cured female mice bled 107 days post treatment, 0.25% topical) was “significantly more” and the anti-tumour antibodies (anti-T7 antibodies; separate group, day 156 post treatment) was “barely detectable”.
